Measured values: US11096951B2, “Prebiotic composition containing butyryl-fructooligosaccharides” (priority 2018, dated 2021)

Key:
B. catenulatum = assay: Analysis of bacterial culture supernatant (HPLC organic acids); format: cell-based, Bifidobacterium catenulatum; details: substance as carbon source
Staphylococcus aureus = assay: Microbial growth curve (OD600); format: cell-based; details: 1% (w/v)
Procedure: (§1) All strains were obtained from the official institute of strain distribution or by the food microbiology laboratory of Seoul National University. Eight bifidobacteria strains, four Lactobacillus (lactic acid bacteria) strains, lactis KCTC 2013 (Lactococcus lactis subsp. lactis KCTC 2013), and Streptococcus thermophilus KCTC 3779 were sub-cultured in MRS supplemented with 0.05% (w/v) L-cysteine.HCl (de-Mann-Rogosa-Sharpe broth; Difco, Detroit, USA) at 37° C., twice every 18 hours prior to use. Other strains were sub-cultured in BHIB (brain-heart infusion broth; Difco) under the same culture conditions as above prior to use.
(§2) A basal medium used for the bacterial growth test was sugar-free BHIB (MB Cell, Los Angeles, Calif., USA). […]
(§3) In order to remove glucose or other carbon source present in a culture medium of activated bacteria, cultured bacteria were centrifuged (15,000×g, 5 min), the supernatant was discarded and the precipitated bacteria were washed with PBS (pH 7.4) twice. […] Bacterial proliferation was checked by measuring optical density (OD) of the culture solution, absorbance at 600 nm was measured with a microplate reader (BioRad, Hercules, Calif., USA) and a growth curve was made. Bacterial growth was analyzed by comparing maximum OD600 values at a substance concentration of 1% (w/v). […]

all strains = assay: Analysis of bacterial culture supernatant (HPLC organic acids), all strains; format: cell-based; details: medium containing the substance
Clostridium butyricum = format: cell-based; details: 1% (w/v)
Bac. Fragilis = assay: Analysis of bacterial culture supernatant (HPLC organic acids); format: cell-based; details: substance as carbon source
B. longum RD47 = assay: as above; format: cell-based, Bifidobacterium longum; details: substance as carbon source
E. Faecalis = assay: Analysis of bacterial culture supernatant (TLC, HPLC organic acids); format: cell-based, Enterococcus faecalis; details: substance as carbon source
L. casei = assay: Analysis of bacterial culture supernatant (HPLC organic acids); format: cell-based, Lactobacillus casei; details: substance as carbon source
B. bifidum BGN4 = assay: as above; format: cell-based, Bifidobacterium bifidum; details: substance as carbon source
Bac. Thetaiotaomicron = assay: as above; format: cell-based; details: substance as carbon source
E. coli = assay: as above; format: cell-based, Escherichia coli; details: substance as carbon source
Caco-2 cells = assay: Change in growth of Caco-2 cells depending on medium composition (trypan blue cell count); details: 4 days
Procedure: To avoid main use of glucose as an energy source for cell growth in a standard culture medium of Caco-2 cells containing a high concentration of glucose (4.5 g/L), cellular growth was compared in the presence of a high concentration of glucose (4.5 g/L) and pyruvate using a glucose-free DMEM (Dulbecco's modified Eagle's medium; Gibco BRL, Grand Island, N.Y., USA).
10% (w/v) solutions of NaB, FOS and B-FOS in PBS were prepared and filtered through a 0.2 μm membrane filter. NaB, FOS and B-FOS were each prepared at a concentration of 0.005 to 0.06% (w/v) in a DMEM medium containing high concentrations of glucose (4.5 g/L) and pyruvate (Glu+Pyr+) and a DMEM medium not containing the same (Glu−Pyr−), and were then used for the test.
5×10^5 cells were seeded in a dose of 1.5 mL in a 25 cm^2 flask (SPL Life Science, Pocheon, South Korea) and cultured for 3 days in 37° C., 5% CO2 cell incubator until 50% confluence was obtained. Then, the medium was replaced with a medium supplemented with 0.005 to 0.06% (w/v) of NaB, FOS and B-FOS and then cultured under the same conditions for 4 days. The culture supernatant was harvested for testing and adsorbed cells were washed with PBS twice, were treated with trypsin/EDTA, and were isolated from the flask. […] The control group was a medium supplemented with PBS and a mean of values obtained by repeating tests three times is shown.

B. longum BORI = assay: Analysis of bacterial culture supernatant (TLC, HPLC organic acids); format: cell-based, Bifidobacterium longum; details: substance as carbon source
[1] = system: all bacteria used for tests; assay: Microbial growth curve (OD600), all bacteria used for tests; format: cell-based; details: compared to positive control (glucose)
Procedure: as §1, §2, §3

[2] = Cell viability by MTT analysis; format: cell-based; details: human, Caco-2 cells, percentage of control
Procedure: MTT analysis was conducted to confirm cytotoxicity derived from B-FOS. 100 μl of Caco-2 cells were seeded at a density of 2,000 cells/well onto a 96-well plate and cultured at 37° C. in a 5% CO2 cell incubator for 48 hours. […] After completion of culture, 20 μl of a 5 mg/mL MTT solution was added to each well, reaction was conducted for 4 hours again and the supernatant was removed. The formed crystal was dissolved in 100 μl of dimethyl sulfoxide (DMSO) and an absorbance at 750 nm was measured using a microplate spectrophotometer. Cell viability was represented as a percentage with respect to the control group with no treatment and a mean of values by repeating the test four times was indicated (FIG. 16).

CCCC(=O)[O-].[Na+] [NaB, Sodium Butyrate]
Acetic acid (B. catenulatum): + (0.05% (v/v) or less)
Butyric acid (B. catenulatum): +++ (no more than 0.25% (v/v))
Lactic acid (B. catenulatum): ++ (0.05% (v/v) − 0.25% (v/v))
growth of bacteria (Staphylococcus aureus; vs negative control): significantly inhibited
maximum OD600 (Staphylococcus aureus; negative control OD600=0.36): 0.25
butyric acid in culture solutions (HPLC) (all strains): detected
growth of bacteria (Clostridium butyricum; vs negative control): significantly inhibited
maximum OD600 (Clostridium butyricum; negative control OD600=0.49): 0.42
Acetic acid (Bac. Fragilis): + (0.05% (v/v) or less)
Butyric acid (Bac. Fragilis): +++ (no more than 0.25% (v/v))
Lactic acid (Bac. Fragilis): + (0.05% (v/v) or less)
Acetic acid (B. longum RD47): + (0.05% (v/v) or less)
Butyric acid (B. longum RD47): +++ (no more than 0.25% (v/v))
Lactic acid (B. longum RD47): + (0.05% (v/v) or less)
Acetic acid (E. Faecalis): + (0.05% (v/v) or less)
Butyric acid (E. Faecalis): +++ (no more than 0.25% (v/v))
Lactic acid (E. Faecalis): + (0.05% (v/v) or less)
Acetic acid (L. casei): + (0.05% (v/v) or less)
Butyric acid (L. casei): +++ (no more than 0.25% (v/v))
Lactic acid (L. casei): + (0.05% (v/v) or less)
Acetic acid (B. bifidum BGN4): + (0.05% (v/v) or less)
Butyric acid (B. bifidum BGN4): +++ (no more than 0.25% (v/v))
Lactic acid (B. bifidum BGN4): + (0.05% (v/v) or less)
Acetic acid (Bac. Thetaiotaomicron): + (0.05% (v/v) or less)
Butyric acid (Bac. Thetaiotaomicron): +++ (no more than 0.25% (v/v))
Lactic acid (Bac. Thetaiotaomicron): −
Acetic acid (E. coli): + (0.05% (v/v) or less)
Butyric acid (E. coli): +++ (no more than 0.25% (v/v))
Lactic acid (E. coli): −
decrease in the number of cells as compared to the control group (Caco-2 cells; Glu+Pyr+ medium, 0.005% (w/v)): about 30%
decrease in the number of cells as compared to the control group (Caco-2 cells; Glu+Pyr+ medium, 0.04% (w/v)): ~50%
decrease in the number of cells as compared to the control group (Caco-2 cells; Glu+Pyr+ medium, 0.06% (w/v)): ~65%
number of cells vs control group (Caco-2 cells; Glu−Pyr− medium, 0.005% (w/v)): increased
number of cells vs control group (Caco-2 cells; Glu−Pyr− medium, 0.02% (w/v)): increased
number of cells vs control group (Caco-2 cells; Glu−Pyr− medium, 0.04% (w/v)): no significant difference
decrease in the number of cells as compared to the control group (Caco-2 cells; Glu−Pyr− medium, 0.06% (w/v)): 35%
Acetic acid (B. longum BORI): + (0.05% (v/v) or less)
Butyric acid (B. longum BORI): +++ (no more than 0.25% (v/v))
Lactic acid (B. longum BORI): + (0.05% (v/v) or less)
growth / use by bacteria used for tests [1]: could not be grown well
viability at 48 h, 0.1 % (w/v) ([2]; after 48 hours): 81 ± 15%
viability at 72 h, 0.1 % (w/v) ([2]; after 72 hours): 45 ± 6.9%
